Results as given in patent US10899759B2, “Positive allosteric modulators of the muscarinic acetylcholine receptor M1” (Vanderbilt University, priority 2016, dated 2021).
Like-named read-outs stand apart in the source and are kept apart here.

Target: T1, human mAChR M1 (Homo sapiens, UniProt P11229)
T1 construct: host or cells: CHO-K1
T1 sequence (P11229 1-460): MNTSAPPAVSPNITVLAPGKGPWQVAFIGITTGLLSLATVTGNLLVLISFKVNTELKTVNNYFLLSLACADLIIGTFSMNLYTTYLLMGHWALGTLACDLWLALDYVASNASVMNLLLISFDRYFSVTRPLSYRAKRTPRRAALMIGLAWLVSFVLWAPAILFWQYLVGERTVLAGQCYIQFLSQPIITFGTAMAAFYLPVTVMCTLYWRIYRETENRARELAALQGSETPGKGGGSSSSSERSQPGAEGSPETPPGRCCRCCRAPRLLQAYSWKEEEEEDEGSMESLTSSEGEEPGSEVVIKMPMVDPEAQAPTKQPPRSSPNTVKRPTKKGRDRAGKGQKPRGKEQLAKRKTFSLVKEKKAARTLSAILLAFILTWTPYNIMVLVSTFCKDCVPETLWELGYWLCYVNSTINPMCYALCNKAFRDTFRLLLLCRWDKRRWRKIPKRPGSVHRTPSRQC
Assay: mAChR M1 cell-based functional assay (calcium mobilization, Fluo-4, FDSS)
Conditions: for EC50: positive allosteric modulator activity as increase in the EC20 acetylcholine response
In short: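 CHO-K1 cells stably expressing muscarinic receptor, loaded with Fluo-4; 11-point 1:3 compound series added and calcium flux read over 300 s at 1 Hz. Agonism from direct calcium rise, PAM activity as potentiation of EC20 acetylcholine, antagonism as decrease of EC80 acetylcholine; four-parameter logistic fits.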

[1] = CHO-K1 cells stably expressing hM1, EC20 acetylcholine response, read-out: Human M1 Emax
[2] = CHO-K1 cells stably expressing hM1

Structure (SMILES)	Emax [1]	EC50 [2]	Emax (CHO-K1, read-out: Human M1 Emax)
Cn1ccc2c(Cc3ccc(-c4cscn4)cc3)cc(C(=O)N[C@H]3CCOC[C@@H]3O)nc21 [Compound 21, N-[(3R,4S)-3-hydroxytetrahydropyran-4-yl]-1-methyl-4-[(4-thiazol-4-ylphenyl)methyl]pyrrolo[2,3-b]pyridine-6-carboxamide]	59.3%	20 nM	
Cn1ccc2c(Cc3ccc(-c4cscn4)cc3)cc(C(=O)N[C@H]3CCOC3)nc21 [Compound 33, 1-methyl-N-[(3S)-tetrahydrofuran-3-yl]-4-[(4-thiazol-4-ylphenyl)methyl]pyrrolo[2,3-b]pyridine-6-carboxamide]	50.6%	2910 nM	
Cn1ccc2c(Cc3ccc(-c4cscn4)cc3)cc(C(=O)NCC3CCOCC3)nc21 [Compound 26, 1-methyl-N-(tetrahydropyran-4-ylmethyl)-4-[(4-thiazol-4-ylphenyl)methyl]pyrrolo[2,3-b]pyridine-6-carboxamide]	52.6%	410 nM	
Cn1ncc2c(Cc3ccc(-c4cscn4)cc3)cc(C(=O)NCC3CCOCC3)nc21 [Compound 29, 1-methyl-N-(tetrahydropyran-4-ylmethyl)-4-[(4-thiazol-4-ylphenyl)methyl]pyrazolo[3,4-b]pyridine-6-carboxamide]	48.1%	1610 nM	
Cc1nc(-c2ccc(Cc3cc(C(=O)NCC4CCN4)nc4sccc34)cc2)co1 (stereo not shown) [Compound 142, N-(azetidin-2-ylmethyl)-4-[[4-(2-methyloxazol-4-yl)phenyl]methyl]thieno[2,3-b]pyridine-6-carboxamide]	60.1%	2370 nM	
Cn1ccc2c(Cc3ccc(-c4cscn4)cc3)cc(C(=O)N[C@H]3CC[C@@H]3O)nc21 [Compound 3, N-[(1S,2S)-2-hydroxycyclobutyl]-1-methyl-4-[(4-thiazol-4-ylphenyl)methyl]pyrrolo[2,3-b]pyridine-6-carboxamide]		360 nM	70.4%
COCC(C)NC(=O)c1cc(Cc2ccc(-c3cnn(C)c3)nc2)c2ccsc2n1 (stereo not shown) [Compound 128, N-(2-methoxy-1-methyl-ethyl)-4-[[6-(1-methylpyrazol-4-yl)-3-pyridyl]methyl]thieno[2,3-b]pyridine-6-carboxamide]	60.8%	160 nM	
Cc1nc(-c2ccc(Cc3cc(C(=O)NC4CC5(COC5)C4)nc4c3ccn4C)cc2)co1 [Compound 54, 1-methyl-4-[[4-(2-methyloxazol-4-yl)phenyl]methyl]-N-(2-oxaspiro[3.3]heptan-6-yl)pyrrolo[2,3-b]pyridine-6-carboxamide]	84.6%	380 nM	
CC1(C)COCCC1NC(=O)c1cc(Cc2ccc(-n3cccn3)cc2)c2ccsc2n1 (stereo not shown) [Compound 74, N-(3,3-dimethyltetrahydropyran-4-yl)-4-[(4-pyrazol-1-ylphenyl)methyl]thieno[2,3-b]pyridine-6-carboxamide]	69.1%	1290 nM	
Cn1ccc2c(Cc3ccc(-c4cscn4)cc3)cc(C(=O)N[C@@H]3CCOC3)nc21 [Compound 34, 1-methyl-N-[(3R)-tetrahydrofuran-3-yl]-4-[(4-thiazol-4-ylphenyl)methyl]pyrrolo[2,3-b]pyridine-6-carboxamide]	54.8%	2190 nM	
Cn1ccc2c(Cc3ccc(-c4cscn4)cc3)cc(C(=O)NC3CC4(COC4)C3)nc21 [Compound 23, 1-methyl-N-(2-oxaspiro[3.3]heptan-6-yl)-4-[(4-thiazol-4-ylphenyl)methyl]pyrrolo[2,3-b]pyridine-6-carboxamide]	75.4%	140 nM	
Cc1nc(-c2ccc(Cc3cc(C(=O)N[C@H]4CCC[C@@H]4O)nc4c3ccn4C)cc2)co1 [Compound 56, N-[(1S,2S)-2-hydroxycyclopentyl]-1-methy1-4-[[4-(2-methyloxazol-4-yl)phenyl]methyl]pyrrolo[2,3-b]pyridine-6-carboxamide]	84%	270 nM	
Cn1ccc2c(Cc3ccc(-c4cscn4)cc3)cc(C(=O)NC3CCOC(C)(C)C3)nc21 (stereo not shown) [Compound 25, N-(2,2-dimethyltetrahydropyran-4-yl)-1-methyl-4-[(4-thiazol-4-ylphenyl)methyl]pyrrolo[2,3-b]pyridine-6-carboxamide]	76.7%	670 nM	
Cn1ccc(-c2ccc(Cc3cc(C(=O)NCC4CCOCC4)nc4sccc34)cc2)n1 [Compound 94, 4-[[4-(1-methylpyrazol-3-yl)phenyl]methyl]-N-(tetrahydropyran-4-ylmethyl)thieno[2,3-b]pyridine-6-carboxamide]	61.4%	630 nM	
Cc1nc(-c2ccc(Cc3cc(C(=O)N[C@@H]4CCOC4)nc4sccc34)cc2)co1 [Compound 137, 4-[[4-(2-methyloxazol-4-yl)phenyl]methyl]-N-[(3R)-tetrahydrofuran-3-yl]thieno[2,3-b]pyridine-6-carboxamide]	59.5%	1900 nM	
C[C@@H]1CC(NC(=O)c2cc(Cc3ccc(-c4nccs4)cc3)c3ccn(C)c3n2)C[C@H](C)O1 (stereo partly drawn) [Compound 65, N-[(2S,6R)-2,6-dimethyltetrahydropyran-4-yl]-1-methyl-4-[(4-thiazol-2-ylphenyl)methyl]pyrrolo[2,3-b]pyridine-6-carboxamide]	58.6%	2780 nM	
Cn1ncc2c(Cc3ccc(-c4cscn4)cc3)cc(C(=O)N[C@H]3CCOC[C@@H]3O)nc21 [Compound 27, N-[(3R,4S)-3-hydroxytetrahydropyran-4-yl]-1-methyl-4-[(4-thiazol-4-ylphenyl)methyl]pyrazolo[3,4-b]pyridine-6-carboxamide]	75.1%	70 nM	
CC1CC(NC(=O)c2cc(Cc3ccc(-c4ccn(C)n4)nc3)c3ccsc3n2)CC(C)O1 (stereo not shown) [Compound 104, N-(2,6-dimethyltetrahydropyran-4-yl)-4-[[6-(1-methylpyrazol-3-yl)-3-pyridyl]methyl]thieno[2,3-b]pyridine-6-carboxamide]	59.7%	90 nM	
Cc1nc(-c2ccc(Cc3cc(C(=O)NC4CC(C)OC(C)C4)nc4sccc34)cc2)co1 (stereo not shown) [Compound 132, N-(2,6-dimethyltetrahydropyran-4-yl)-4-[[4-(2-methyloxazol-4-yl)phenyl]methyl]thieno[2,3-b]pyridine-6-carboxamide]	58.9%	1050 nM	
Cn1ccc2c(Cc3ccc(-c4nccs4)cc3)cc(C(=O)NC3CCOCC3(C)C)nc21 (stereo not shown) [Compound 67]	61.2%	1390 nM	
Cn1ncc2c(Cc3ccc(-c4cscn4)cc3)cc(C(=O)NC3CCOCC3)nc21 [Compound 1, 1-methyl-N-tetrahydropyran-4-yl-4-[(4-thiazol-4-ylphenyl)methyl]pyrazolo[3,4-b]pyridine-6-carboxamide]	69%	1420 nM	
CCn1ccc2c(Cc3ccc(-n4cccn4)cc3)cc(C(=O)N[C@H]3CCC[C@@H]3O)nc21 [Compound 14, 1-ethyl-N-[(1S,2S)-2-hydroxycyclopentyl]-4-[(4-pyrazol-1-ylphenyl)methyl]pyrrolo[2,3-b]pyridine-6-carboxamide]	69.4%	150 nM	
Cn1ccc(-c2ccc(Cc3cc(C(=O)N[C@H]4CCC[C@@H]4O)nc4c3ccn4C)cn2)n1 [Compound 153, N-[(1S,2S)-2-hydroxycyclopentyl]-1-methyl-4-[[6-(1-methylpyrazol-3-yl)-3-pyridyl]methyl]pyrrolo[2,3-b]pyridine-6-carboxamide]	75.1%	190 nM	
CC1CC(NC(=O)c2cc(Cc3ccc(-c4ccn(C)n4)cc3)c3ccsc3n2)CC(C)O1 (stereo not shown) [Compound 91, N-(2,6-dimethyltetrahydropyran-4-yl)-4-[[4-(1-methylpyrazol-3-yl)phenyl]methyl]thieno[2,3-b]pyridine-6-carboxamide]	56.2%	520 nM	
Cn1cc(-c2ccc(Cc3cc(C(=O)NC4CC5(COC5)C4)nc4sccc34)cn2)cn1 [Compound 123, 4-[[6-(1-methylpyrazol-4-yl)-3-pyridyl]methyl]-N-(2-oxaspiro[3.3]heptan-6-yl)thieno[2,3-b]pyridine-6-carboxamide]	56.2%	100 nM	
Cn1ccc(-c2ccc(Cc3cc(C(=O)NC4CCOCC4(C)C)nc4sccc34)cc2)n1 (stereo not shown) [Compound 92, N-(3,3-dimethyltetrahydropyran-4-yl)-4-[[4-(1-methylpyrazol-3-yl)phenyl]methyl]thieno[2,3-b]pyridine-6-carboxamide]	61.6%	1180 nM	
Cc1nc(-c2ccc(Cc3cc(C(=O)NC4CCOCC4)nc4sccc34)cc2)co1 [Compound 4, 4-[[4-(2-methyloxazol-4-yl)phenyl]methyl]-N-tetrahydropyran-4-yl-thieno[2,3-b]pyridine-6-carboxamide]	57.9%	140 nM	
O=C(N[C@H]1CCCC[C@@H]1O)c1cc(Cc2ccc(-n3cccn3)cc2)c2ccsc2n1 [Compound 69, N-[(1S,2S)-2-hydroxycyclohexyl]-4-[(4-pyrazol-1-ylphenyl)methyl]thieno[2,3-b]pyridine-6-carboxamide]	52.9%	30 nM	
Cn1ccc2c(Cc3ccc(-n4cccn4)cc3)cc(C(=O)N[C@H]3CCCC[C@@H]3O)nc21 [Compound 17, N-[(1S,2S)-2-hydroxycyclohexyl]-1-methyl-4-[(4-pyrazol-1-ylphenyl)methyl]pyrrolo[2,3-b]pyridine-6-carboxamide]	66.4%	30 nM	
